In patent publication US8653087B2, “Pyrido [5, 4-D] pyrimidines as cell proliferation inhibitors” (Boehringer Ingelheim International GmbH, priority 2008, dated 2014) one finds IC50 data, which are given here for 65 molecules.

The target in this assay is B-Raf (V600E)-kinase (Homo sapiens (Human), UniProt P15056, V600E). The experiment in a line: Kinase test B-RAF (V600E). Type of assay: biochemical. The conditions noted are these: B-RAF (V600E) kinase test, 250 μM ATP. In a few lines: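 B-Raf (V600E) (0.5 ng) preincubated with compound 24 h at RT (5% DMSO), then reacted 60 min at RT with 250 μM ATP and biotinylated MEK1 as substrate. Phospho-MEK (Ser217/221) captured on streptavidin and detected by europium time-resolved fluorescence; IC50 from dose-response curves.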
B-Raf (V600E)-kinase, sequence (P15056 whole entry V600E): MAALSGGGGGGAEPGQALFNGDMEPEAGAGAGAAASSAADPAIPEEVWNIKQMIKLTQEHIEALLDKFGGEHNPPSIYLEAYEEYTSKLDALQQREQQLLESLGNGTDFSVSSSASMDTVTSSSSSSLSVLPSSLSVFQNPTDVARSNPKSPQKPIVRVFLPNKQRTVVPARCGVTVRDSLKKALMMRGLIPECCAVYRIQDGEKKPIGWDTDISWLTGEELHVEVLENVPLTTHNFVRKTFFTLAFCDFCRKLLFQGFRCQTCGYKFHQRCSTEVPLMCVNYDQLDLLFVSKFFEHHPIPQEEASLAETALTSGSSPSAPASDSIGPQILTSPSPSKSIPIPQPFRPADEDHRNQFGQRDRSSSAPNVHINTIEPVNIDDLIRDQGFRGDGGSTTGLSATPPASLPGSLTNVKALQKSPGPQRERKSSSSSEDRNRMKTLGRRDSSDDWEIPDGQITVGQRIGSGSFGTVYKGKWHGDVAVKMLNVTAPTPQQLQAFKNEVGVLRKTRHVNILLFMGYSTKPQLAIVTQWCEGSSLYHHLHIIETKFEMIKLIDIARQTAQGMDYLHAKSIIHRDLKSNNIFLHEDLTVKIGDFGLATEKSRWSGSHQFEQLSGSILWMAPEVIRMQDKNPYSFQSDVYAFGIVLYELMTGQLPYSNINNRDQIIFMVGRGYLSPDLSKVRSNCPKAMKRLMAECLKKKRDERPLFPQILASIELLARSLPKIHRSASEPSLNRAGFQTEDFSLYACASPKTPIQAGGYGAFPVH

On to `COc1ccc(NC(=O)c2ccc(C)c(Nc3ncnc4cnc(N5CCC(CN(C)C)CC5)nc34)c2)cc1C(F)(F)F` [III-599], for which the IC50 (as a rule, the midpoint of a concentration-inhibition curve) turned out to be 1 nM.
Take `Cc1ccc(C(=O)Nc2cc(C(C)(C)C)n[nH]2)cc1Nc1ncnc2cnc(N3CCC(CN4CCCC4)CC3)nc12` [III-600]: the IC50 worked out at 3 nM.
To `CC1=Nc2ccc(NC(=O)c3ccc(C)c(Nc4ncnc5cnc(N6CCC(CN7CCCC7)CC6)nc45)c3)cc2C1(C)C` [III-601] belongs 6 nM; to `Cc1ccc(C(=O)Nc2cc(C(C)(C)C)n[nH]2)cc1Nc1ncnc2cnc(N3CCN(CC4CCOC4)CC3)nc12` (centres unmarked) [III-602], 9 nM; to `Cc1ccc(C(=O)Nc2cc(C(C)(C)C)on2)cc1Nc1ncnc2cnc(N3CCC4(CCN(C)C4)C3)nc12` (centres unmarked) [III-603], 1 nM.
The value for `Cc1ccc(C(=O)Nc2ccnc(C(C)(C)C)c2)cc1Nc1ncnc2cnc(N3CCC(CN4CCCC4)CC3)nc12` [III-604] was 3 nM.
The value for `Cc1cn(-c2ncc3ncnc(Nc4cc(C(=O)Nc5cc(C(C)(C)C)n[nH]5)ccc4C)c3n2)cn1` [III-605] was 6 nM; that for `Cc1ccc(C(=O)Nc2ccnc(C(C)(C)C)c2)cc1Nc1ncnc2cnc(N3CCC(CCN(C)C)CC3)nc12` [III-606] was 3 nM.
In turn, `Cc1ccc(C(=O)Nc2ccc3c(c2)OC(F)(F)C(F)(F)O3)cc1Nc1ncnc2cnc(N3CCN(CCN(C)C)CC3)nc12` [III-607] had an IC50 of 1 nM.
To `COCCN1CCN(c2ncc3ncnc(Nc4cc(C(=O)Nc5ccc6c(c5)OC(F)(F)OC6(F)F)ccc4C)c3n2)CC1` [III-608] belongs 7 nM.
To `Cc1ccc(NC(=O)c2cccc(C(C)(C)C#N)c2)cc1Nc1ncnc2cnc(N3CCOCC3)nc12` [IV-2] belongs less than 1 nM; to `Cc1ccc(NC(=O)c2cccc(C(F)(F)F)c2)cc1Nc1ncnc2cnc(N3CCN(C)CC3)nc12` [IV-3], 12 nM.
Consider `Cc1ccc(NC(=O)c2cc(C(C)(C)C)n[nH]2)cc1Nc1ncnc2cnc(N3CCN(C)CC3)nc12` [IV-4], for which the IC50 came out at 44 nM.
The value for `Cc1ccc(NC(=O)c2cc(C(C)(C)C)on2)cc1Nc1ncnc2cnc(N3CCN(C)CC3)nc12` [IV-5] was 129 nM; that for `Cc1ccc(NC(=O)c2cccc(C(C)(C)C#N)c2)cc1Nc1ncnc2cnc(N3CCN(C)CC3)nc12` [IV-7] was 1 nM.
`Cc1ccc(NC(=O)c2cc(C(C)(C)C)nn2C)cc1Nc1ncnc2cnc(N3CCN(C)CC3)nc12` [IV-10] yielded an IC50 of 221 nM.
The value for `Cc1ccc(NC(=O)c2cccc(C(C)(C)C#N)c2)cc1Nc1ncnc2cnc(N(C)C)nc12` [IV-12] was 1 nM.
In turn, `Cc1ccc(NC(=O)c2cc(N3CCN(C)CC3)cc(C(F)(F)F)c2)cc1Nc1ncnc2cnc(N(C)C)nc12` [IV-13] had an IC50 of 3 nM.
To `COc1ccc(C(=O)Nc2ccc(C)c(Nc3ncnc4cnc(N(C)C)nc34)c2)cc1C(F)(F)F` [IV-15] belongs 3 nM; to `Cc1ccc(NC(=O)c2cc(N3CCN(C)CC3)cc(C(F)(F)F)c2)cc1Nc1ncnc2cnc(N(C)CCN(C)C)nc12` [IV-18], 9 nM; to `Cc1ccc(NC(=O)c2cccc(C(C)(C)C#N)c2)cc1Nc1ncnc2cnc(N(C)CCCN(C)C)nc12` [IV-22], 2 nM.
To `Cc1ccc(NC(=O)c2cc(N3CCN(C)CC3)cc(C(F)(F)F)c2)cc1Nc1ncnc2cnc(N(C)CCCN(C)C)nc12` [IV-23] belongs 4 nM.
To `Cc1ccc(NC(=O)c2cc(C(C)(C)C)nn2C)cc1Nc1ncnc2cnc(N(C)CCCN(C)C)nc12` [IV-24] belongs 72 nM.
Molecule `Cc1ccc(NC(=O)c2cccc(C(C)(C)C#N)c2)cc1Nc1ncnc2cnc(N3CCN(C4CC4)CC3)nc12` [IV-26] gave an IC50 of 2 nM.
In turn, `CCN1CCN(c2ncc3ncnc(Nc4cc(NC(=O)c5cccc(C(C)(C)C#N)c5)ccc4C)c3n2)CC1` [IV-27] yielded an IC50 of 1 nM.
The molecule `Cc1ccc(NC(=O)c2cccc(C(C)(C)C#N)c2)cc1Nc1ncnc2cnc(NC3CCN(C)CC3)nc12` [IV-28] showed an IC50 of 1 nM.
`Cc1ccc(NC(=O)c2cccc(C(C)(C)C#N)c2)cc1Nc1ncnc2cnc(N(C)C3CCN(C)CC3)nc12` [IV-29] came in with an IC50 of 1 nM.
In the case of `Cc1ccc(NC(=O)c2cccc(C(C)(C)C#N)c2)cc1Nc1ncnc2cnc(NC3CCOC3)nc12` (centres unmarked) [IV-30], the IC50 was less than 1 nM.
The value for `Cc1ccc(NC(=O)c2cccc(C(C)(C)C#N)c2)cc1Nc1ncnc2cnc(N(C)C3CCOCC3)nc12` [IV-31] was 5 nM; that for `Cc1ccc(NC(=O)c2cccc(C(C)(C)C#N)c2)cc1Nc1ncnc2cnc(NC3CCOC3)nc12` (centres unmarked) [IV-32] was 1 nM.
`Cc1ccc(NC(=O)c2cccc(C(C)(C)C#N)c2)cc1Nc1ncnc2cnc(N3CCC(F)(F)C3)nc12` [IV-33] gave an IC50 of 2 nM.
Regarding `Cc1ccc(NC(=O)c2cccc(C(C)(C)C#N)c2)cc1Nc1ncnc2cnc(N3CC[C@@H](F)C3)nc12` [IV-34], the midpoint of inhibition, the IC50, lay at 2 nM.
To `Cc1ccc(NC(=O)c2cccc(C(C)(C)C#N)c2)cc1Nc1ncnc2cnc(N3CC[C@H](F)C3)nc12` [IV-35] belongs 2 nM.
Regarding `CC(=O)N1CCN(c2ncc3ncnc(Nc4cc(NC(=O)c5cccc(C(C)(C)C#N)c5)ccc4C)c3n2)CC1` [IV-36], the IC50 is 4 nM.
In turn, `Cc1ccc(NC(=O)c2cccc(C(C)(C)C#N)c2)cc1Nc1ncnc2cnc(N(C)C3CCOC3)nc12` (centres unmarked) [IV-37] returned a half-maximal inhibitory concentration (IC50) of 1 nM.
The value for `Cc1ccc(NC(=O)c2cccc(C(C)(C)C#N)c2)cc1Nc1ncnc2cnc(NC3CCOCC3)nc12` [IV-38] was 2 nM; that for `Cc1ccc(NC(=O)c2cccc(C(C)(C)C#N)c2)cc1Nc1ncnc2cnc(N(C)CC3CCOCC3)nc12` [IV-39] was 4 nM; that for `COc1ncc2ncnc(Nc3cc(NC(=O)c4cccc(C(C)(C)C#N)c4)ccc3C)c2n1` [IV-40] was 2 nM.
The value for `COc1ncc2ncnc(Nc3cc(NC(=O)c4ccc(OC)c(C(F)(F)F)c4)ccc3C)c2n1` [IV-42] was 13 nM; that for `COc1ncc2ncnc(Nc3cc(NC(=O)c4cc(N5CCN(C)CC5)cc(C(F)(F)F)c4)ccc3C)c2n1` [IV-46] was 3 nM; that for `COc1ncc2ncnc(Nc3cc(NC(=O)c4ccc(Cl)c(C(F)(F)F)c4)ccc3C)c2n1` [IV-50] was 59 nM.
To `Cc1ccc(NS(=O)(=O)CC(F)(F)F)cc1Nc1ncnc2cnc(N3CCN(C)CC3)nc12` [IV-53] belongs 10000 nM; to `Cc1ccc(NS(=O)(=O)CCC(C)C)cc1Nc1ncnc2cnc(N3CCN(C)CC3)nc12` [IV-54], 10000 nM.
Regarding `Cc1ccc(NS(=O)(=O)C2CCCCC2)cc1Nc1ncnc2cnc(N3CCN(C)CC3)nc12` [IV-55], half-maximal inhibition (IC50) required 10000 nM.
To `CCC(C)S(=O)(=O)Nc1ccc(C)c(Nc2ncnc3cnc(N4CCN(C)CC4)nc23)c1` (centres unmarked) [IV-56] belongs 10000 nM; to `Cc1ccc(NS(=O)(=O)CC(C)C)cc1Nc1ncnc2cnc(N3CCN(C)CC3)nc12` [IV-57], 10000 nM.
Consider `Cc1ccc(NS(=O)(=O)C(C)C)cc1Nc1ncnc2cnc(N3CCN(C)CC3)nc12` [IV-58], for which 49 nM corresponded to half-maximal inhibition (IC50).
The value for `Cc1ccc(NS(=O)(=O)CCC(F)(F)F)cc1Nc1ncnc2cnc(N3CCN(C)CC3)nc12` [IV-59] was 2000 nM; that for `Cc1ccc(NS(=O)(=O)CC2CC2)cc1Nc1ncnc2cnc(N3CCN(C)CC3)nc12` [IV-60] was 2000 nM; that for `Cc1ccc(NS(=O)(=O)c2cccc(C(F)(F)F)c2)cc1Nc1ncnc2cnc(N3CCN(C)CC3)nc12` [IV-61] was 10000 nM.
The value for `Cc1ccc(NS(=O)(=O)CC2CCCO2)cc1Nc1ncnc2cnc(N3CCN(C)CC3)nc12` (centres unmarked) [IV-62] was 2000 nM; that for `Cc1ccc(NS(=O)(=O)C2CC2)cc1Nc1ncnc2cnc(N3CCN(C)CC3)nc12` [IV-63] was 595 nM.
As for `CCS(=O)(=O)Nc1ccc(C)c(Nc2ncnc3cnc(N4CCN(C)CC4)nc23)c1` [IV-64], the IC50 is 521 nM.
The value for `CCCS(=O)(=O)Nc1ccc(C)c(Nc2ncnc3cnc(N4CCN(C)CC4)nc23)c1` [IV-65] was 2000 nM; that for `Cc1ccc(NS(C)(=O)=O)cc1Nc1ncnc2cnc(N3CCN(C)CC3)nc12` [IV-66] was 10000 nM; that for `CCN1CCN(c2cc(C(=O)Nc3ccc(C)c(Nc4ncnc5cnc(N6CCOCC6)nc45)c3)cc(C(C)(C)C#N)c2)CC1` [IV-67] was 2 nM.
Take `Cc1ccc(NC(=O)c2cc(N3CCN(C)CC3)cc(C(C)(C)C#N)c2)cc1Nc1ncnc2cnc(N3CCOCC3)nc12` [IV-68]: the concentration for half-maximal inhibition (IC50) was 3 nM.
The value for `Cc1ccc(C(=O)Nc2cc(C(C)(C)C)on2)cc1Nc1ncnc2cncnc12` [V-1] was 2 nM; that for `Cc1ccc(C(=O)Nc2cc(CN3CCCC3)cc(C(F)(F)F)c2)cc1Nc1ncnc2cncnc12` [V-8] was 4 nM; that for `Cc1ccc(C(=O)Nc2cc(C(C)(C)C)n[nH]2)cc1Nc1ncnc2cncnc12` [V-9] was 5 nM.
Regarding `Cc1ccc(C(=O)Nc2cc(C(C)(C)C)nn2C)cc1Nc1ncnc2cncnc12` [V-10], the IC50 is 14 nM.
In the case of `CNc1ncnc2c(Nc3cc(C(=O)Nc4cc(C(C)(C)C)on4)ccc3C)ncnc12` [VII-1], the concentration for half-maximal inhibition (IC50) came out at 1 nM.
The value for `CNc1ncnc2c(Nc3cc(NC(=O)c4cccc(C(C)(C)C#N)c4)ccc3C)ncnc12` [VIII-1] was less than 1 nM; that for `CC(C)(C#N)c1cccc(C(=O)Nc2cccc(Nc3ncnc4c(N)ncnc34)c2)c1` [VIII-2] was 30 nM.
To `CNc1ncnc2c(Nc3cccc(NC(=O)c4cccc(C(C)(C)C#N)c4)c3)ncnc12` [VIII-3] belongs 13 nM.
